A value given as a limit tells only on which side of the number the result lay.

The first assay addresses T1, Recombinant human cathepsin A (Homo sapiens, UniProt P10619).
T1 construct: Recombinant human cathepsin A (residues 29-480, with a C-terminal 10-His tag); 10-His (C); purchased R&D Systems 1049-SE
T1 sequence (P10619 29-312 limits assumed): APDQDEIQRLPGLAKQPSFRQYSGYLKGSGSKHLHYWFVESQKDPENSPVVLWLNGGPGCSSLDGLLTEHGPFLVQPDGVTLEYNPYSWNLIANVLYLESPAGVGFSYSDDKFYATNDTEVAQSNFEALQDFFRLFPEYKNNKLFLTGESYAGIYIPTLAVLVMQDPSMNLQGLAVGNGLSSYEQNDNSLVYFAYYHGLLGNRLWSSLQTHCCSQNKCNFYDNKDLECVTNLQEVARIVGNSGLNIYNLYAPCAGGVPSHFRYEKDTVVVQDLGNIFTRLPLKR
T1 sequence (P10619 327-480 limits assumed): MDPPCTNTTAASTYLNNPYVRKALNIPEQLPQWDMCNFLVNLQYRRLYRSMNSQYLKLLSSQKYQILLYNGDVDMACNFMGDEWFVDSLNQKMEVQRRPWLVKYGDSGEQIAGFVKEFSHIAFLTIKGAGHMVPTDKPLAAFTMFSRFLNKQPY
The assay can be described thus: Cathepsin A inhibitory activity. It is filed as biochemical. The settings on record: pharmacological test "Cathepsin A inhibitory activity"; IC50 given as class A/B/C; read-out: Activity (2): Cathepsin A inhibitory activity, IC50 class. The method in brief:
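Read-out was microfluidic separation of cleaved vs. uncleaved Bodipy FL-bradykinin (2 μM), giving turnover, % inhibition and IC50. Compound and 833 ng/ml enzyme met for 15 min RT in pH 5.5 MES/DTT before substrate (15 min RT). The 29-480 His-tagged human enzyme was first activated by cathepsin L, then E-64 (10 μM).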
As for `O=C(O)C[C@H](NC(=O)c1cc(O)n(-c2ccccc2Cl)n1)c1cccc(Cl)c1Cl` [Example 212], the IC50 (commonly the concentration that gives 50% inhibition) is less than 0.1 µM.
On the same count and under the same terms, as for `O=C(O)C[C@H](NC(=O)c1cc(O)n(-c2ccc(F)cc2F)n1)c1ccc(C(F)(F)F)cc1` [Example 185], the figure is 0.1 to 1 µM; as for `O=C(O)C[C@H](NC(=O)c1cc(O)n(-c2ccccc2Cl)n1)c1cccc(Cl)c1` [Example 214], 0.1 to 1 µM; as for `O=C(O)CC(NC(=O)c1cc(O)n(-c2ccccc2F)n1)c1cccc(C(F)(F)F)c1` (stereo not shown) [Example 231], 0.1 to 1 µM.
On the same count and under the same terms, as for `O=C(O)CC(NC(=O)c1cc(O)n(-c2ccncc2)n1)c1ccc(-c2ccccc2)cc1` (stereo not shown) [Example 151], the figure is 1 to 30 µM.

The assay is the same for the next values; noted with them: read-out: Activity (2): Cathepsin A inhibitory activity (IC50 class).
For `O=C(O)CC(NC(=O)c1cc(O)n(-c2ccccc2Cl)n1)c1ccc(-n2cncn2)cc1` (stereo not shown) [Example 557, 3-{[1-(2-Chloro-phenyl)-5-hydroxy-1H-pyrazole-3-carbonyl]-amino}-3-(4-[1,2,4]triazol-1-yl-phenyl)-propionic acid], the IC50 lay in the range of 0.1 to 1 µM.
Same read-out and setting: as for `O=C(O)CC(NC(=O)c1cc(O)n(-c2cccc(Cl)c2F)n1)c1ccc(-c2ccc(F)cc2)cc1` (stereo not shown) [Example 590], the figure is 0.1 to 1 µM.
Still for that read-out and setting: as for `CCOc1cc(C(=O)NC(CC(=O)O)c2ccc(F)cc2)nn1-c1ccccc1F` (stereo not shown) [Example 719], the figure is 0.1 to 1 µM; as for `CCOc1cc(C(=O)N[C@@H](CC(=O)O)c2ccccc2F)nn1-c1ccccc1F` [Example 720], less than 0.1 µM.
The same measure, in the same setting: as for `O=C(O)CC(NC(=O)c1cc(O)n(-c2ccccc2C(F)(F)F)n1)c1ccc(-c2ccc(F)cc2)cc1` (stereo not shown) [Example 569], the figure is 0.1 to 1 µM.
As to `CC(C)(C)[C@@](C)(O)COc1cc(C(=O)N[C@@H](CC(=O)O)c2ccccc2Cl)nn1-c1ccccc1F` [Example 790, (S)-3-(2-Chloro-phenyl)-3-{[1-(2-fluoro-phenyl)-5-((R)-2-hydroxy-2,3,3-trimethyl-butoxy)-1H-pyrazole-3-carbonyl]-amino}-propionic acid], the IC50 was less than 0.1 µM.
For the molecule `CC(C)[C@@](C)(O)COc1cc(C(=O)N[C@@H](CC(=O)O)c2cccc(Cl)c2)nn1-c1ccccc1F` [Example 767], the IC50 was less than 0.1 µM.

Staying with this assay, now noted: read-out: Activity (2): Cathepsin A inhibitory activity, IC50 class.
In the case of `O=C(O)C[C@H](NC(=O)c1cc(O)n(-c2ccc(Cl)cc2)n1)c1cccc(C(F)(F)F)c1` [Example 285], the IC50 lay within 1 to 30 µM.
With `COc1ccc(C(CC(=O)O)NC(=O)c2cc(O)n(-c3cccc(F)c3)n2)c(OC)c1` (stereo not shown) [Example 306], the IC50 lay in the range of 0.1 to 1 µM.
The same measure, in the same setting: then `O=C(O)C[C@H](NC(=O)c1cc(O)n(-c2cccc(F)c2)n1)c1ccccc1C(F)(F)F` [Example 329], with 0.1 to 1 µM.
Still for that read-out and setting: as for `COc1cccc([C@H](CC(=O)O)NC(=O)c2cc(OC[C@](C)(O)C(C)C)n(-c3ccccc3F)n2)c1` [Example 806, (S)-3-{[1-(2-Fluoro-phenyl)-5-((R)-2-hydroxy-2,3-dimethyl-butoxy)-1H-pyrazole-3-carbonyl]-amino}-3-(3-methoxy-phenyl)-propionic acid], the figure is less than 0.1 µM; as for `COc1ccc([C@H](CC(=O)O)NC(=O)c2cc(O)n(-c3ccc(F)cc3F)n2)cn1` [Example 390], 0.1 to 1 µM; as for `CC(C)[C@@](C)(O)COc1cc(C(=O)N[C@@H](CC(=O)O)c2ccccc2F)nn1-c1ccccc1F` [Example 862, (S)-3-(2-Fluoro-phenyl)-3-{[1-(2-fluoro-phenyl)-5-((R)-2-hydroxy-2,3-dimethyl-butoxy)-1H-pyrazole-3-carbonyl]-amino}-propionic acid], 0.1 to 1 µM.
The same measure, in the same setting: as for `O=C(O)CC(NC(=O)c1cc(O)n(-c2ccc(Cl)cc2)n1)c1ccc(F)cc1` (stereo not shown) [Example 73, 3-{[1-(4-Chloro-phenyl)-5-hydroxy-1H-pyrazole-3-carbonyl]-amino}-3-(4-fluoro-phenyl)-propionic acid], the figure is 1 to 30 µM.
On to `Cc1ccc(C)c(-n2nc(C(=O)NC(CC(=O)O)c3ccc(CC(C)C)cc3)cc2O)c1` (stereo not shown) [Example 46], for which the IC50 is 1 to 30 µM.
On the same count and under the same terms, then `O=C(O)CC(NC(=O)c1cc(O)n(-c2ccc(F)cc2)n1)c1ccccc1F` (stereo not shown) [Example 343], with 1 to 30 µM; and `Cc1cccc(C(CC(=O)O)NC(=O)c2cc(O)n(-c3ccccc3)n2)c1` (stereo not shown) [Example 65], with 0.1 to 1 µM; and `Cc1ccc(C)c(C(CC(=O)O)NC(=O)c2cc(O)n(-c3ccccc3)n2)c1` (stereo not shown) [Example 378], with 0.1 to 1 µM.
On the same count and under the same terms, then `COc1ccc([C@H](CC(=O)O)NC(=O)c2cc(O)n(-c3ccccc3F)n2)cn1` [Example 136], with 0.1 to 1 µM; and `Cc1ccc(C)c(-n2nc(C(=O)NC(CC(=O)O)c3cccc(C(F)(F)F)c3)cc2O)c1` (stereo not shown) [Example 53], with 1 to 30 µM; and `O=C(O)C[C@H](NC(=O)c1cc(O)n(-c2ccccc2)n1)c1ccc(C(F)(F)F)cc1` [Example 99], with 0.1 to 1 µM.
Same read-out and setting: then `CC(C)(C)Oc1cccc(C(CC(=O)O)NC(=O)c2cc(O)n(-c3ccccc3)n2)c1` (stereo not shown) [Example 6], with 1 to 30 µM; and `O=C(O)CC(NC(=O)c1cc(O)n(-c2cccc(F)c2)n1)c1cccc(Cl)c1F` (stereo not shown) [Example 322], with 0.1 to 1 µM.
In the case of `Cc1ccc(C)c(-n2nc(C(=O)NC(CC(=O)O)c3cccnc3)cc2O)c1` (stereo not shown) [Example 35], the IC50 was 1 to 30 µM.

Still in this assay, the particulars now being: recombinant human cathepsin A 833 ng/ml, Bodipy FL-labeled bradykinin 2 μM, pH 5.5; read-out: CATH-A IC50.
Regarding `O=C(O)CC(NC(=O)c1cc(O)n(-c2ccccc2Cl)n1)c1ccc(-n2cncn2)cc1` (stereo not shown) [Example 557, 3-{[1-(2-Chloro-phenyl)-5-hydroxy-1H-pyrazole-3-carbonyl]-amino}-3-(4-[1,2,4]triazol-1-yl-phenyl)-propionic acid], the IC50 was determined as 0.839 µM.
Same read-out and setting: then `O=C(O)CC(NC(=O)c1cc(O)n(-c2ccccc2)n1)c1ccc(-c2ccccn2)cc1` (stereo not shown) [Example 499, 3-[(5-Hydroxy-1-phenyl-1H-pyrazole-3-carbonyl)-amino]-3-(4-pyridin-2-yl-phenyl)-propionic acid; compound with trifluoro-acetic acid], with 0.147 µM.
Same read-out and setting: then `O=C(O)CC(NC(=O)c1cc(O)n(-c2ccc(F)cc2)n1)c1ccc(-c2ccccn2)cc1` (stereo not shown) [Example 527, 3-{[1-(4-Fluoro-phenyl)-5-hydroxy-1H-pyrazole-3-carbonyl]-amino}-3-(4-pyridin-2-yl-phenyl)-propionic acid], with 0.152 µM.

The same assay, now with this note: recombinant human cathepsin A; read-out: Activity (2): Cathepsin A inhibitory activity, IC50 class.
Consider `CN(C)c1ccc(C(CC(=O)O)NC(=O)c2cc(O)n(-c3ccc(F)cc3)n2)c(Cl)c1` (stereo not shown) [Example 490], for which the IC50 is 1 to 30 µM.
On the same count and under the same terms, then `COc1cc(C(=O)N[C@@H](CC(=O)Nc2ccn(C)n2)c2ccccc2C)nn1-c1ccccc1F` [Example 930, 1-(2-Fluoro-phenyl)-5-methoxy-1H-pyrazole-3-carboxylic acid [(S)-2-(1-methyl-1H-pyrazol-3-ylcarbamoyl)-1-o-tolyl-ethyl]-amide], with 0.1 to 1 µM; and `O=C(O)CC(NC(=O)c1cc(O)n(-c2ccc(F)cc2)n1)c1cccc2c1OC(F)(F)O2` (stereo not shown) [Example 491], with 0.1 to 1 µM; and `COc1cc(C(=O)N[C@@H](CC(=O)O)c2ccccc2C)nn1-c1ccccc1` [Example 534, (S)-3-[(5-Methoxy-1-phenyl-1H-pyrazole-3-carbonyl)-amino]-3-o-tolyl-propionic acid], with less than 0.1 µM.
Still for that read-out and setting: then `Cc1cccc(C(CC(=O)O)NC(=O)c2cc(O)n(-c3ccccc3F)n2)c1C` (stereo not shown) [Example 405], with less than 0.1 µM.
Same read-out and setting: as for `COc1cc(C(=O)N[C@@H](CC(=O)NC(C)(C)C)c2ccccc2C)nn1-c1ccccc1F` [Example 922, 1-(2-Fluoro-phenyl)-5-methoxy-1H-pyrazole-3-carboxylic acid ((S)-2-tert-butylcarbamoyl-1-o-tolyl-ethyl)-amide], the figure is 1 to 30 µM; as for `O=C(O)CC(NC(=O)c1cc(O)n(-c2ccccc2)n1)c1ccc(-c2ccccn2)cc1` (stereo not shown) [Example 499, 3-[(5-Hydroxy-1-phenyl-1H-pyrazole-3-carbonyl)-amino]-3-(4-pyridin-2-yl-phenyl)-propionic acid; compound with trifluoro-acetic acid], 0.1 to 1 µM.
For `O=C(O)CC(NC(=O)c1cc(O)n(-c2ccc(F)cc2)n1)c1ccc(-c2ccccn2)cc1` (stereo not shown) [Example 527, 3-{[1-(4-Fluoro-phenyl)-5-hydroxy-1H-pyrazole-3-carbonyl]-amino}-3-(4-pyridin-2-yl-phenyl)-propionic acid], the IC50 was 0.1 to 1 µM.

The values above are taken from US8664257B2, “Oxygen-substituted 3-heteroaroylamino-propionic acid derivatives and their use as pharmaceuticals” (Sanofi, priority 2010, dated 2014).
